Values of other authors, collected in patent US10314839B2, “Diversion-resistant opioid formulations” (priority 2014, dated 2019).
Structures can show the parent of a compound that is named as a salt.

Experiments:
[1] = hydrochloride salt
opioid receptor [2] = conditions: after oral doses
opioid receptor [3] = tested on: opioid receptor
[4] = tested on: mu over delta receptor sub-types

SMILES	Solubility in water [1]	Duration of action (opioid receptor [2]) [h]	Protein binding (in vivo)	Oral bioavailability (oral administration)	Opioid agonist effects / properties (opioid receptor [3])	Preferential blocking action between receptor sub-types [4]
O=C1CC[C@@]2(O)[C@H]3Cc4ccc(O)c5c4[C@@]2(CCN3CC2CC2)[C@H]1O5 [hydrochloride salt of naltrexone, naltrexone]	up to 100 mg/mL	–	–	–	–	–
C[C@H]1[C@H]2Cc3ccc(O)cc3[C@]1(C)CCN2CC1CC1 [cyclazocine]	–	~24	–	–	–	–
O=C1CC[C@@]2(O)[C@H]3Cc4ccc(O)c5c4[C@@]2(CCN3CC2CC2)[C@H]1O5 [naltrexone]	–	~24	approximately 21%	5-40%	no opioid agonist properties	strong preferential blocking action against mu over delta receptor sub-types
